From ChEMBL document CHEMBL5247680, “Design, Synthesis, and Biological Activity of Thioguanine-Modified Pleuromutilin Derivatives” (ACS Med Chem Lett, 2023)
Values after ≈ are worked out from the molar mass of the structure shown.

Experiments:
[1] = tested on: Staphylococcus aureus; experiment: Antibacterial activity against Methicillin-resistant Staphylococcus aureus ATCC 33591 assessed as bacterial growth inhibition incubated for 20 to 24 hrs by microbroth serial dilution assay; format: functional; details: time 20-24 hrs
[2] = tested on: Staphylococcus aureus; experiment: Antibacterial activity against Methicillin-resistant Staphylococcus aureus ATCC 43300 assessed as bacterial growth inhibition incubated for 20 to 24 hrs by microbroth serial dilution assay; format: functional; details: time 20-24 hrs
[3] = tested on: Staphylococcus epidermidis; experiment: Antibacterial activity against Methicillin-resistant Staphylococcus epidermidis ATCC 51625 assessed as bacterial growth inhibition incubated for 20 to 24 hrs by microbroth serial dilution assay; format: functional; details: time 20-24 hrs
[4] = tested on: Staphylococcus epidermidis; experiment: Antibacterial activity against Methicillin-sensitive Staphylococcus epidermidis ATCC 12228 assessed as bacterial growth inhibition incubated for 20 to 24 hrs by microbroth serial dilution assay; format: functional; details: time 20-24 hrs
[5] = tested on: Staphylococcus aureus; experiment: Antibacterial activity against Staphylococcus aureus ATCC 25923 assessed as bacterial growth inhibition incubated for 20 to 24 hrs by microbroth serial dilution assay; format: functional; details: time 20-24 hrs
[6] = tested on: Staphylococcus epidermidis; experiment: Selectivity ratio of MBC for antibacterial activity against Methicillin-sensitive Staphylococcus epidermidis […] to MIC for antibacterial activity against Methicillin-sensitive Staphylococcus epidermidis […]; format: functional
[7] = tested on: Staphylococcus aureus; experiment: Selectivity ratio of MBC for antibacterial activity against Staphylococcus aureus to MIC for antibacterial activity against Staphylococcus aureus; format: functional
[8] = tested on: Staphylococcus aureus; experiment: Antibacterial activity against Methicillin-sensitive Staphylococcus aureus ATCC 29213 assessed as bacterial growth inhibition incubated for 20 to 24 hrs by microbroth serial dilution assay
[9] = tested on: Staphylococcus aureus; experiment: Selectivity ratio of MBC for antibacterial activity against Methicillin-sensitive Staphylococcus aureus ATCC 29213 to MIC for antibacterial activity against Methicillin-sensitive Staphylococcus aureus ATCC 29213
[10] = tested on: Staphylococcus aureus; experiment: Selectivity ratio of MBC for antibacterial activity against Methicillin-resistant Staphylococcus aureus ATCC 33591 to MIC for antibacterial activity against Methicillin-resistant Staphylococcus aureus ATCC 33591; format: functional
[11] = tested on: Staphylococcus epidermidis; experiment: Selectivity ratio of MBC for antibacterial activity against Methicillin-resistant Staphylococcus epidermidis ATCC 51625 to MIC for antibacterial activity against Methicillin-resistant Staphylococcus epidermidis ATCC 51625; format: functional

Compound	MIC [1] [µg/mL]	MIC [2] [µg/mL]	MIC [3] [µg/mL]	MIC [4] [µg/mL]	MIC [5] [µg/mL]	Ratio [6]	Ratio [7]	MIC [8] [µg/mL]	Ratio [9]	Ratio [10]	Ratio [11]
C=C[C@]1(C)C[C@@H](OC(=O)CSc2nc(N)nc3c2ncn3C(=O)c2ccc(C)cc2)[C@@]2(C)C3C(=O)CC[C@@]3(CC[C@H]2C)[C@@H](C)[C@@H]1O (stereo partly drawn)	0.125 (≈ 0.194 µM)	0.25 (≈ 0.387 µM)	0.125 (≈ 0.194 µM)	0.0078 (≈ 0.0121 µM)	0.125 (≈ 0.194 µM)	>4	>4	0.125 (≈ 0.194 µM)	–	–	–
C=C[C@]1(C)C[C@@H](OC(=O)CSc2nc(N)nc3c2ncn3C(=O)Nc2ccccc2OC)[C@@]2(C)C3C(=O)CC[C@@]3(CC[C@H]2C)[C@@H](C)[C@@H]1O (stereo partly drawn)	0.125 (≈ 0.185 µM)	0.25 (≈ 0.369 µM)	0.125 (≈ 0.185 µM)	0.0156 (≈ 0.023 µM)	0.25 (≈ 0.369 µM)	>4	>4	0.125 (≈ 0.185 µM)	2	–	–
C=C[C@]1(C)C[C@@H](OC(=O)CSc2nc(N)nc3c2ncn3C(=O)Nc2ccccc2)[C@@]2(C)C3C(=O)CC[C@@]3(CC[C@H]2C)[C@@H](C)[C@@H]1O (stereo partly drawn)	0.125 (≈ 0.193 µM)	0.0625 (≈ 0.0966 µM)	0.125 (≈ 0.193 µM)	0.0156 (≈ 0.0241 µM)	0.125 (≈ 0.193 µM)	>4	>4	0.125 (≈ 0.193 µM)	4	–	–
C=C[C@]1(C)C[C@@H](OC(=O)CSc2nc(N)nc3c2ncn3C(=O)NCc2cccc([N+](=O)[O-])c2)[C@@]2(C)C3C(=O)CC[C@@]3(CC[C@H]2C)[C@@H](C)[C@@H]1O (stereo partly drawn)	0.0312 (≈ 0.0443 µM)	0.0625 (≈ 0.0885 µM)	0.0625 (≈ 0.0885 µM)	< 0.0078	0.0625 (≈ 0.0885 µM)	>4	>4	0.0625 (≈ 0.0885 µM)	4	–	–
C=C[C@]1(C)C[C@@H](OC(=O)CSc2nc(N)nc3c2ncn3C(=O)NCc2ccccc2OC)[C@@]2(C)C3C(=O)CC[C@@]3(CC[C@H]2C)[C@@H](C)[C@@H]1O (stereo partly drawn)	0.125 (≈ 0.181 µM)	0.0625 (≈ 0.0905 µM)	0.0625 (≈ 0.0905 µM)	0.0156 (≈ 0.0226 µM)	0.125 (≈ 0.181 µM)	>4	>4	0.0625 (≈ 0.0905 µM)	2	4	–
C=C[C@]1(C)C[C@@H](OC(=O)CSc2nc(N)nc3c2ncn3C(=O)NCCc2ccccc2)[C@@]2(C)C3C(=O)CC[C@@]3(CC[C@H]2C)[C@@H](C)[C@@H]1O (stereo partly drawn)	–	–	–	< 0.0078	–	–	–	–	–	–	–
C=C[C@]1(C)C[C@@H](OC(=O)CSc2nc(NC(=O)CN3CCC(O)CC3)nc3[nH]cnc23)[C@@]2(C)C3C(=O)CC[C@@]3(CC[C@H]2C)[C@@H](C)[C@@H]1O (stereo partly drawn)	16 (≈ 23.9 µM)	32 (≈ 47.8 µM)	2 (≈ 2.99 µM)	2 (≈ 2.99 µM)	16 (≈ 23.9 µM)	>4	>4	16 (≈ 23.9 µM)	–	–	–
C=C[C@]1(C)C[C@@H](OC(=O)CSc2nc(N)nc3c2ncn3C(=O)c2ccc([N+](=O)[O-])cc2)[C@@]2(C)C3C(=O)CC[C@@]3(CC[C@H]2C)[C@@H](C)[C@@H]1O (stereo partly drawn)	0.125 (≈ 0.185 µM)	0.0625 (≈ 0.0923 µM)	0.0625 (≈ 0.0923 µM)	< 0.0078	0.125 (≈ 0.185 µM)	>4	>4	0.0625 (≈ 0.0923 µM)	–	–	–
C=C[C@]1(C)C[C@@H](OC(=O)CSc2nc(N)nc3c2ncn3C(=O)NCc2ccc([N+](=O)[O-])cc2)[C@@]2(C)C3C(=O)CC[C@@]3(CC[C@H]2C)[C@@H](C)[C@@H]1O (stereo partly drawn)	0.25 (≈ 0.354 µM)	0.25 (≈ 0.354 µM)	0.0625 (≈ 0.0885 µM)	< 0.0078	0.125 (≈ 0.177 µM)	>4	>4	0.0625 (≈ 0.0885 µM)	–	–	–
C=C[C@]1(C)C[C@@H](OC(=O)CSc2nc(N)nc3c2ncn3C(=O)NCc2ccc(C)cc2)[C@@]2(C)C3C(=O)CC[C@@]3(CC[C@H]2C)[C@@H](C)[C@@H]1O (stereo partly drawn)	0.0625 (≈ 0.0926 µM)	0.0625 (≈ 0.0926 µM)	0.0625 (≈ 0.0926 µM)	< 0.0312	0.125 (≈ 0.185 µM)	>4	>4	0.125 (≈ 0.185 µM)	4	–	–
C=C[C@]1(C)C[C@@H](OC(=O)CSc2nc(N)nc3c2ncn3C(=O)Nc2cccc(NC(=O)OC(C)(C)C)c2)[C@@]2(C)C3C(=O)CC[C@@]3(CC[C@H]2C)[C@@H](C)[C@@H]1O (stereo partly drawn)	0.25 (≈ 0.328 µM)	0.25 (≈ 0.328 µM)	0.125 (≈ 0.164 µM)	0.0156 (≈ 0.0205 µM)	0.25 (≈ 0.328 µM)	>4	>4	0.25 (≈ 0.328 µM)	2	4	–
C=C[C@]1(C)C[C@@H](OC(=O)CSc2nc(NC(=O)CN3CCN(C)CC3)nc3[nH]cnc23)[C@@]2(C)C3C(=O)CC[C@@]3(CC[C@H]2C)[C@@H](C)[C@@H]1O (stereo partly drawn)	16 (≈ 24 µM)	32 (≈ 47.9 µM)	1 (≈ 1.5 µM)	4 (≈ 5.99 µM)	16 (≈ 24 µM)	>4	>4	8 (≈ 12 µM)	4	–	–
C=C[C@]1(C)C[C@@H](OC(=O)CSc2nc(NC(=O)CNC3CCOCC3)nc3[nH]cnc23)[C@@]2(C)C3C(=O)CC[C@@]3(CC[C@H]2C)[C@@H](C)[C@@H]1O (stereo partly drawn)	0.5 (≈ 0.748 µM)	16 (≈ 23.9 µM)	1 (≈ 1.5 µM)	2 (≈ 2.99 µM)	0.5 (≈ 0.748 µM)	>4	>4	8 (≈ 12 µM)	–	–	–
C=C[C@]1(C)C[C@@H](OC(=O)CSc2nc(N)nc3c2ncn3C(=O)c2ccc(OC)cc2)[C@@]2(C)C3C(=O)CC[C@@]3(CC[C@H]2C)[C@@H](C)[C@@H]1O (stereo partly drawn)	0.5 (≈ 0.755 µM)	0.125 (≈ 0.189 µM)	0.25 (≈ 0.378 µM)	< 0.0078	0.25 (≈ 0.378 µM)	>4	>4	0.5 (≈ 0.755 µM)	–	–	4
C=C[C@]1(C)C[C@@H](OC(=O)CSc2nc(NC(=O)CN3CCNCC3)nc3[nH]cnc23)[C@@]2(C)C3C(=O)CC[C@@]3(CC[C@H]2C)[C@@H](C)[C@@H]1O (stereo partly drawn)	32 (≈ 48.9 µM)	64 (≈ 97.9 µM)	16 (≈ 24.5 µM)	4 (≈ 6.12 µM)	32 (≈ 48.9 µM)	>4	>4	32 (≈ 48.9 µM)	–	–	–
C=C[C@]1(C)C[C@@H](OC(=O)CSc2nc(N)nc3c2ncn3C(=O)OC)[C@@]2(C)C3C(=O)CC[C@@]3(CC[C@H]2C)[C@@H](C)[C@@H]1O (stereo partly drawn)	0.125 (≈ 0.213 µM)	0.125 (≈ 0.213 µM)	0.125 (≈ 0.213 µM)	0.0625 (≈ 0.107 µM)	0.125 (≈ 0.213 µM)	>4	>4	0.5 (≈ 0.854 µM)	–	–	–
C=C[C@]1(C)C[C@@H](OC(=O)CSc2nc(N)nc3c2ncn3C(=O)CCc2ccccc2)[C@@]2(C)C3C(=O)CC[C@@]3(CC[C@H]2C)[C@@H](C)[C@@H]1O (stereo partly drawn)	0.125 (≈ 0.189 µM)	0.125 (≈ 0.189 µM)	0.125 (≈ 0.189 µM)	0.0156 (≈ 0.0236 µM)	0.25 (≈ 0.379 µM)	>4	4	0.125 (≈ 0.189 µM)	>4	–	–
C=C[C@]1(C)C[C@@H](OC(=O)CSc2nc(N)nc3c2ncn3C(=O)Nc2cccc(F)c2)[C@@]2(C)C3C(=O)CC[C@@]3(CC[C@H]2C)[C@@H](C)[C@@H]1O (stereo partly drawn)	0.25 (≈ 0.376 µM)	0.25 (≈ 0.376 µM)	0.125 (≈ 0.188 µM)	0.0156 (≈ 0.0235 µM)	0.25 (≈ 0.376 µM)	>4	>4	0.0625 (≈ 0.094 µM)	–	–	–
C=C[C@]1(C)C[C@@H](OC(=O)CSc2nc(N)nc3c2ncn3C(=O)Nc2ccc(C(C)=O)cc2)[C@@]2(C)C3C(=O)CC[C@@]3(CC[C@H]2C)[C@@H](C)[C@@H]1O (stereo partly drawn)	0.0625 (≈ 0.0907 µM)	0.125 (≈ 0.181 µM)	0.125 (≈ 0.181 µM)	0.0156 (≈ 0.0226 µM)	0.062 (≈ 0.09 µM)	>4	>4	0.125 (≈ 0.181 µM)	4	–	–
C=C[C@]1(C)C[C@@H](OC(=O)CSc2nc(N)nc3c2ncn3C(=O)NCc2ccccc2)[C@@]2(C)C3C(=O)CC[C@@]3(CC[C@H]2C)[C@@H](C)[C@@H]1O (stereo partly drawn)	0.0312 (≈ 0.0473 µM)	0.0625 (≈ 0.0946 µM)	0.0625 (≈ 0.0946 µM)	< 0.0078	0.0312 (≈ 0.0473 µM)	>4	>4	0.0625 (≈ 0.0946 µM)	–	–	–
C=C[C@]1(C)C[C@@H](OC(=O)CSc2nc(N)nc3c2ncn3C(=O)NCc2ccc(OC)cc2)[C@@]2(C)C3C(=O)CC[C@@]3(CC[C@H]2C)[C@@H](C)[C@@H]1O (stereo partly drawn)	0.0625 (≈ 0.0905 µM)	0.0625 (≈ 0.0905 µM)	0.0312 (≈ 0.0452 µM)	< 0.0312	0.125 (≈ 0.181 µM)	>4	>4	0.0625 (≈ 0.0905 µM)	–	–	–
C=C[C@]1(C)C[C@@H](OC(=O)CSc2nc(NC(=O)CCl)nc3[nH]cnc23)[C@@]2(C)C3C(=O)CC[C@@]3(CC[C@H]2C)[C@@H](C)[C@@H]1O (stereo partly drawn)	0.5 (≈ 0.828 µM)	0.5 (≈ 0.828 µM)	0.25 (≈ 0.414 µM)	0.0156 (≈ 0.0258 µM)	0.5 (≈ 0.828 µM)	>4	>4	0.5 (≈ 0.828 µM)	–	–	–
C=C[C@]1(C)C[C@@H](OC(=O)CSc2nc(N)nc3c2ncn3C(=O)Nc2ccccc2Cl)[C@@]2(C)C3C(=O)CC[C@@]3(CC[C@H]2C)[C@@H](C)[C@@H]1O (stereo partly drawn)	0.125 (≈ 0.183 µM)	0.125 (≈ 0.183 µM)	0.0625 (≈ 0.0917 µM)	0.0078 (≈ 0.0114 µM)	0.125 (≈ 0.183 µM)	>4	>4	0.25 (≈ 0.367 µM)	4	–	–
C=C[C@]1(C)C[C@@H](OC(=O)CSc2nc(NC(=O)CN3CCCCC3)nc3[nH]cnc23)[C@@]2(C)C3C(=O)CC[C@@]3(CC[C@H]2C)[C@@H](C)[C@@H]1O (stereo partly drawn)	0.125 (≈ 0.191 µM)	0.125 (≈ 0.191 µM)	0.5 (≈ 0.766 µM)	0.5 (≈ 0.766 µM)	0.0625 (≈ 0.0957 µM)	>4	>4	0.25 (≈ 0.383 µM)	–	–	–
